In article PMC4456664, “The HAB1 PP2C is inhibited by ABA-dependent PYL10 interaction” (Scientific Reports, 2015):

Target: T1, PYL10 (Arabidopsis thaliana, UniProt Q8H1R0)
T1 sequence (Q8H1R0 1-183): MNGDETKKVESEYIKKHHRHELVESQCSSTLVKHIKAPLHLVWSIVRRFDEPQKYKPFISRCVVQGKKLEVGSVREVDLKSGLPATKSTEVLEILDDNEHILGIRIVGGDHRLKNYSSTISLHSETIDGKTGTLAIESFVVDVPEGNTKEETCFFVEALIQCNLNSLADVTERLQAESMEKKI
Experiment: ITC at […] °C, pH […]; supported by 1H-15N HSQC NMR titration and HAB1 phosphatase assay
Assay type: binding

CC1=CC(=O)CC(C)(C)[C@@]1(O)/C=C/C(C)=C\C(=O)O [abscisic acid]
Kd: 66.2 ± 13.9 µM
